Results reported in patent US20160031937A1, “NEURAL REGENERATION PEPTIDES AND USES THEREFOR” (CURONZ HOLDINGS COMPANY LIMITED, priority 2013, published 2016).
“Also recorded” adds a separate entry of the source. Square brackets hold non-standard residues; d marks the D form. Ends that are not written are not given here. βAla = NCCC(=O)O

Assays:
cerebellar granule cells = assay: Survival of cerebellar microexplants under glutamate and 3-NP toxicity; format: cell-based, Wistar rats; conditions: for block of NNZ-4921 neuronal survival-promoting activity: glutamate and 3-NP toxicity, 48 hours, eotaxin-3 10 and 100 nM, AMD3100 300 nM, co-administered with NNZ-4921
Procedure: Glass coverslips were obtained from New Zealand BioLabs, size 18 mm×18 mm. The coverslips were placed in a 150 mm Petri dish, at 8 cover slips per dish. Both sides of the coverslips were soaked and washed in absolute ethanol. The ethanol was discarded, and autoclaved MilliQ® was added to rinse both sides of coverslips. The water was then discarded, and the coverslips were air dried under the laminar flow.
Poly-D-lysine (PDL) was obtained from Sigma (P7280, lyophilized powder, γ-irradiated, average mol wt 30,000-70,000, cell culture tested). This was diluted with autoclaved PBS to make a stock solution of 1 mg/ml. The stock solution was divided into aliquots of 500 μl/tube and stored at −20° C.
For experiments, the stock solution of PDL was diluted with PBS 1:10 to make working solution of with a final concentration of 100 μg/ml. Approximately 100 μl of the PDL working solution was added to the coverslips and this was incubated at 34° C. for 2 hours (minimum) to overnight.
Next, more than 10 ml autoclaved MilliQ® was added into each Petri dish and the PDL-coated coverslips were rinsed. The coverslips were then transferred to 6 well culture plates. After air drying, the plates were wrapped in foil and stored at 4° C. until use. Storage was possible for up to 2 weeks.
Rat pups were used for this experiment (Wistar rats), either P3/4 or P7/8.
For extraction of P3/4 cerebellar cortices, 0.5 ml of ice-cold PBS/0.65% D(+)-glucose buffer was placed into a Petri dish and the tissue was placed into this solution. For extraction of P7/8 cerebellar cortices, 1.0 ml of ice-cold PBS/0.65% D(+)-glucose buffer was placed into a Petri dish and the tissue was placed into this solution.
The laminated cerebellar cortex was removed surgically and stored immediately in ice-cold PBS/0.65% D(+)-glucose buffer using the amounts as noted above. The cortex was then transferred to a Petri dish, and the meninges were removed from the cerebellar. The tissue was sliced by scissors, and passed once (P3/P4 pups) or twice (P7/P8 pups) through a 23-gauge sized needle attached to a 1 cc syringe to obtain uniformly sized microexplants. This was set aside in a Petri dish.
Next, the tissue was transferred into a 15 ml Falcon tube and centrifuged for 2 minutes at 350 rpm, at 4° C. The PBS/Glu(+) buffer was carefully discarded using a pipette. The pellet was resuspended in cold Neurobasal® medium (Invitrogen), at 1 ml per pup. This was centrifuged for 2 minutes at 350 rpm (60XG), at 4° C.
The medium was discarded and the pellet was resuspended in warm Neurobasal® medium, at 0.5 ml per P3/4 pup and 1.5 ml per P7/8 pup. This was then seeded on PDL-coated cover slips in 6 well plates at a volume of 40-45 μl per coverslip.
The coverslips were incubated at 34° C., in 5% CO2, with 100% humidity for 45 minutes to 1.5 hours to allow adherence. Then, 1 ml of Neurobasal® medium was added per well and the microexplants were checked under a microscope for adherence.
The toxins 3-nitropropionic acid and glutamate were prepared at 100× concentrations. For 50 mM 3-nitropropionic acid (Sigma), the stock solution was titrated with NaOH to a pH value of 7-7.2. For 50 mM L-glutamate, this was dissolved under heat (hot water).
As a negative control, 10 μl of 3-nitropropionic acid and 10 μl of glutamate was administered (4 wells). As a positive control, 20 μl of PBS was administered to normoxic microexplants without any toxins (4 wells). […]

human W9-hESCs = format: cell-based; conditions: 300 nM AMD3100, normoxic and OGD conditions
Procedure: Experiments with human embryonic stem cells (hESC) were carried out in accordance with the guidelines and regulations of the NHMRC and with the approval of the Austin Health Human Research Ethics Committee (Approval number H2008/03194), and University of Melbourne Human Research Ethics Committee (Approval number 0605017). H9 (WA-09, WiCell) cell lines were grown as previously described (Dottori & Pera, 2007).
Briefly, hESC were cultured on mitomycin-C treated mouse embryonic fibroblasts (MEFs) in hESC medium consisting of high-glucose Dulbecco's Modified Eagle Medium (DMEM) without sodium pyruvate, supplemented with 1% insulin/transferrin/selenium, 0.1 mM β-mercaptoethanol, 1% nonessential amino acids (NEAA), 2 mM glutamine, 25 U/ml penicillin, 25 μg/ml streptomycin (all from Invitrogen) and 20% fetal calf serum (FCS) (Hyclone).
Alternatively, hESC were cultured on mitomycin-C treated human foreskin fibroblasts (HFF; ATCC, CRL-2097) in KSR media consisting of DMEM/nutrient mixture F-12, supplemented with 0.1 mM […], 1% nonessential amino acids (NEAA), 2 mM glutamine, 25 U/ml penicillin, 25 μg/ml streptomycin and 20% knockout serum replacement (all from Invitrogen).
All cells were cultured at 37° C. in 5% CO2 with 100% humidity. Colonies were mechanically dissected every 7 days (subcultivated or passaged) and transferred to freshly prepared MEFs or HFFs. Media was changed every second day.
Neuronal differentiation was achieved using the noggin induction method described for mouse neurospheres as adapted by Dottori for human neurospheres (Dottori & Pera, 2007). The colonies were maintained at 37° C., with 5% CO2 in hESC medium supplemented with 500 ng/ml of Noggin for 14 days while replacing Noggin every other day.
At this point, the cells were washed with PBS and the colonies were again mechanically dissociated, but this time the central (differentiated) part of the colony was also cut into smaller pieces using a 26-gauge needle. The pieces were transferred to individual wells in a low adherent 96-well plate containing Neurobasal®A (NBM) (Invitrogen) supplemented with 1× X B-27® (Invitrogen) and 1× N-2 (Invitrogen) 20 ng/ml human recombinant EGF and 20 ng/ml human recombinant bFGF (Pharmacia). Media was changed every 2 to 3 days to allow neurosphere formation over 2 weeks.
In order to facilitate neuronal differentiation, neurospheres were again separated into smaller pieces under a dissection microscope, and three to four pieces were transferred to each well of a 96-well plate. Prior to this transfer, the plate was pre-coated with poly-D-lysine (10 μg/ml in PBS), washed in PBS, recoated with mouse laminin (5 μg/ml in PBS), and washed again. The cells were then grown for 11 days (with media changed every two days) in NBM lacking growth factors prior to induction of injury and assessment of hypothermia.
On the day of experiments, the medium was changed to NBM+N2 containing a B27 preparation lacking the usual antioxidants (Invitrogen; 10889-038) to eliminate their confounding effects (NBM-AO).
To maintain isoosmotic pressure conditions, 25 mM 2-deoxy-D-glucose was added to NBM-AO medium and equilibrated for 30 minutes at room temperature before the initial media change as described above. […] Culture supernatant was removed after this 4 hour period and stored at 4° C. until analysed for lactate dehydrogenase (LDH) activity.
The media was replaced with fresh NBM-AO and the cells were incubated for a further 20 hours containing drug, before again measuring LDH. Oxidative stress was induced by adding 50 μM fresh H2O2 (Sigma, H1009) to the growth factor negative NBM on initiation of the experiment with continued culture for 4 hours when LDH was measured and NBM-AO without H2O2 was returned to the culture which was maintained for a further 20 hours before again measuring LDH.

[1] = target: T1, homodimeric CXCR4 receptor (Homo sapiens, UniProt P61073); assay: 125I-SDF-1 displacement binding study (CEREP); conditions: recombinant homodimeric CXCR4 expressing HEK293 cells; unlabelled peptide in competition
T1 construct: host or cells: HEK293
Procedure: This was determined by radioactive ^125I-SDF-1 displacement studies using CXCR4 homodimeric receptors and unlabelled NNZ-4921 and NRP2945 in competition.

neuronal stem cells = conditions: cited from earlier work
[2] = target: T2, homodimeric CXCR4 receptor (recombinant, expressed in HEK293 cells) (UniProt P61073 1-352, limits assumed); assay: 125I-SDF-1 displacement on HEK293 cells expressing recombinant homodimeric CXCR4 (CEREP)
T2 construct: whole, on cells; also called CXCR4 homodimeric receptors; homodimeric CXCR4 receptor complex
T2 sequence (P61073 whole entry): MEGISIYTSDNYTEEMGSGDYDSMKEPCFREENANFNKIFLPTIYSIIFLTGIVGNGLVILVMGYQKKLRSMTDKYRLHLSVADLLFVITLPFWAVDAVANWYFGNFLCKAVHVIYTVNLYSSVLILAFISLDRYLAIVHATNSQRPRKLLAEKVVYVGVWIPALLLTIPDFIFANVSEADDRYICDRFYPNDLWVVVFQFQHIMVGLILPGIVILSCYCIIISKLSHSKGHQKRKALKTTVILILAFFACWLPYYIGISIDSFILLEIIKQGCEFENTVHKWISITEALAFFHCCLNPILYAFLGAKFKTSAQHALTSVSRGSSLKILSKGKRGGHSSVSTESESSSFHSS

T1 sequence (P61073 whole entry): as above

Molecule: c1cc(CN2CCCNCCNCCCNCC2)ccc1CN1CCCNCCNCCCNCC1 [AMD3100, reference compound]
- block of NNZ-4921 neuronal survival-promoting activity (cerebellar granule cells): completely block
- toxicity on W9-hESCs (human W9-hESCs): did not show any toxicity

Molecule: GRRAAPGR-β-Ala-GG (GRRAAPGR[βAla]GG) [NRP2983, synthetic 11-mer peptidomimetic closely related to NRP2945]
- promotion of survival of cultivated cerebellar cells (cerebellar granule cells; 1fM NRP2983, oxidatively stressed cerebellar microexplants): 70%

Molecule: GRRAAPGRAGG [NNZ-4921]
- displacement of 125I-SDF-1 from homodimeric CXCR4 receptor [1]: not able to displace the radioactive ligand SDF-1
- activity of NNZ-4921 in reducing cell death in presence of eotaxin-3 in combination with AMD3100 (cerebellar granule cells; 10 fM or 100 fM NNZ-4921): completely blocked

Molecule: SDF-1: natural ligand for the CXCR4 receptor
- EC50 values for chemoattraction (neuronal stem cells; SDF-1): lower nanomolar range
- minimal concentration required to chemoattract neuronal stem cells (neuronal stem cells; Xu and Heilshorn, 2012): 9 nM

Molecule: eotaxin-3: human recombinant eotaxin-3 (Pharmaco), ligand of the CCR3 receptor, partial agonist
- block of NNZ-4921 neuronal survival-promoting activity (cerebellar granule cells): abrogation of the neuroprotective effect; also recorded: completely blocked
- effect of eotaxin-3 alone on neuronal survival (cerebellar granule cells; without NNZ-4921, normoxic or oxidative/excitotoxic stress conditions): no toxic effect; also recorded: no effect on the overall neuronal survival rate

Molecule: GRRAAPGRAGG [NNZ-4921]
- binding result [2]: no binding
